In patent US8507472B2 (priority 2010, dated 2013):
Where “and” joins values, the source holds several entries; their conditions need not be identical. Equal values may be shown once.

Experiments:
Alternaria solani = assay: Alternaria test (tomato)/protective; format: in vivo; conditions: in vivo
Method in brief: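 Young tomato plants were sprayed with compound (DMF/emulsifier formulation diluted in water) and inoculated with A. solani spores 1 day later. Plants were kept 24 h at 100% RH and 22 °C, then at 96% RH and 20 °C. Efficacy was scored 7 days post-inoculation, where 0% equals untreated control and 100% means no infection.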

Botrytis cinerea = assay: Botrytis test (bean)/protective; format: in vivo; conditions: 100 ppm active compound, protective, evaluation 2 days after inoculation
Experimental: (§1) Solvents: 24.5 parts by weight of acetone
(§2) • 24.5 parts by weight of dimethylacetamide Emulsifier: 1 part by weight of alkylaryl polyglycol ether
(§3) To produce a suitable preparation of active compound, 1 part by weight of active compound is mixed with the stated amounts of solvents and emulsifier, and the concentrate is diluted with water to the desired concentration.
To test for protective activity, young plants are sprayed with the active compound preparation at the stated application rate. After the spray coating has dried on, 2 small pieces of agar colonized by Botrytis cinerea are placed onto each leaf. The inoculated plants are placed in a dark chamber at about 20° C. and 100% relative atmospheric humidity.
2 days after the inoculation, the size of the infected areas on the leaves is evaluated. 0% means an efficacy which corresponds to that of the control, whereas an efficacy of 100% means that no infection is observed.

Fusarium graminearum [1] = format: in vivo; conditions: in vivo
[2] = test system: Fusarium nivale (var. majus); assay: Fusarium nivale (var. majus) test (wheat)/protective; format: in vivo; conditions: 1000 ppm active compound, protective, evaluation 5 days after inoculation
Experimental: (§4) Solvent: 49 parts by weight of N,N-dimethylacetamide
(§5) Emulsifier: 1 part by weight of alkylaryl polyglycol ether
(§6) To produce a suitable preparation of active compound, 1 part by weight of active compound is mixed with the stated amounts of solvent and emulsifier, and the concentrate is diluted with water to the desired concentration.
(§7) To test for protective activity, young plants are sprayed with the active compound preparation at the stated application rate.
After the spray coating has dried on, the plants are sprayed with spores of a spore suspension of Fusarium nivale (var. majus).
The plants are placed in a greenhouse chamber under a translucent incubation hood at 10° C. and 100% relative atmospheric humidity.
Evaluation is carried out 5 days after the inoculation. 0% means an efficacy which corresponds to that of the control, whereas an efficacy of 100% means that no infection is observed.

Leptosphaeria nodorum = Leptosphaeria nodorum test (wheat)/protective; format: in vivo; conditions: in vivo
Method in brief: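 Young wheat plants were sprayed protectively, then inoculated 1 day later with L. nodorum spores and held 48 h at 100% humidity and 22° C. They were then kept in a greenhouse at 90% humidity and 22° C. Efficacy was scored 7-9 days post-inoculation, where 0% equals control and 100% means no infection.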

Puccinia triticina = Puccinia triticina test (wheat)/protective; format: in vivo; conditions: in vivo
Experimental: Solvent: 49 parts by weight of […]
as §5, §6, §7
After the spray coating has dried on, the plants are sprayed with spores of a spore suspension of Puccinia triticina. The plants remain in an incubation cabin at 20° C. and 100% relative atmospheric humidity for 48 hours.
The plants are placed in greenhouse at a temperature of about 20° C. and a relative atmospheric humidity of about 80%.
Evaluation is carried out 8 days after the inoculation. 0% means an efficacy which corresponds to that of the control, whereas an efficacy of 100% means that no infection is observed.

Septoria tritici = Septoria tritici test (wheat)/protective; format: in vivo; conditions: in vivo
Experimental: as §4, §5
To produce a suitable preparation of active compound, 1 part by weight of active compound is mixed with the stated amount of solvent and emulsifier, and the concentrate is diluted with water to the desired concentration.
To test for protective activity, young plants are sprayed with the active compound preparation at the stated application rate. After the spray coating has dried on, the plants are sprayed with a spore suspension of Septoria tritici. The plants remain in an incubation cabin at 20° C. and 100% relative atmospheric humidity for 48 hours. The plants are then placed under a translucent hood at 15° C. and 100% relative atmospheric humidity for a further 60 hours.
The plants are placed in a greenhouse at a temperature of about 15° C. and a relative atmospheric humidity of 80%.
Evaluation is carried out 21 days after the inoculation. 0% means an efficacy which corresponds to that of the control, whereas an efficacy of 100% means that no infection is observed.

Uromyces appendiculatus = assay: Uromyces test (bean)/protective; format: in vivo; conditions: in vivo
Experimental: as §1, §2, §3
(§8) To test for protective activity, young plants are sprayed with the active compound preparation at the stated application rate. After the spray coating has dried on, the plants are inoculated with an aqueous spore suspension of the bean rust pathogen Uromyces appendiculatus and then remain in an incubation cabin at about 20° C. and 100% relative atmospheric humidity for 1 day.
(§9) The plants are then placed in a greenhouse at about 21° C. and a relative atmospheric humidity of about 90%.
(§10) Evaluation is carried out 10 days after the inoculation. 0% means an efficacy which corresponds to that of the control, whereas an efficacy of 100% means that no infection is observed.

Venturia inaequalis = assay: Venturia test (apple)/protective; format: in vivo; conditions: 100 ppm active compound, protective, evaluation 10 days after inoculation
Experimental: Solvents: 24.5 parts by weight of acetone • 24.5 parts by weight of dimethylacetamide Emulsifier: 1 part by weight of alkylaryl polyglycol ether
as §3
as §8, with “conidia” for “spore”, “apple scab” for “bean rust”, “Venturia inaequalis” for “Uromyces appendiculatus”
as §9, §10

Phytophthora infestans = format: in vivo; conditions: in vivo
Pyrenophora teres = Pyrenophora teres test (barley)/protective; format: in vivo; conditions: in vivo
Method in brief: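 Protective test: young barley plants sprayed at the stated rate with compound in DMF/alkylaryl polyglycol ether diluted with water, inoculated with P. teres spores 1 day later, kept 48 h at 100% rel. humidity and 22° C., then greenhouse at 80% and 20° C. Efficacy scored 7-9 days post-inoculation (0% = control, 100% = no infection).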

Sphaerotheca fuliginea = assay: Sphaerotheca test (cucumber)/protective; format: in vivo; conditions: in vivo
Method in brief: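 Protective test: young cucumber plants sprayed with compound (DMF/alkylaryl polyglycol ether concentrate diluted in water) at the stated rate, inoculated with S. fuliginea spores 1 day later, then kept in greenhouse at 23 °C, 70% RH. Efficacy scored 7 days post-inoculation; 0% equals untreated control, 100% means no infection.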

DON/AcDON production = assay: microbe, parasite or virus in culture; format: cell-based, Fusarium graminearum; conditions: 7 days at 28° C.
Fusarium graminearum [3] = assay: microbe, parasite or virus in culture; format: cell-based; conditions: 50 μM

CC(C)C(=O)Nc1cc(-c2c(-c3ccc(F)cc3)nn3c2CCC3C)ccn1 (stereo not shown) [Example 77]
efficacy in % (Alternaria solani): 89%
efficacy in % (Botrytis cinerea): 100%
efficacy in % (Fusarium graminearum [1]): 90%
efficacy in % [2]: 100%
efficacy in % (Leptosphaeria nodorum): 94%
efficacy in % (Puccinia triticina): 88%
efficacy in % (Septoria tritici): 100%
efficacy in % (Uromyces appendiculatus): 98%
efficacy in % (Venturia inaequalis): 100%

CCC(=O)Nc1cc(-c2c(-c3ccc(F)cc3)nn3c2CCC3)ccn1 [Example 40]
efficacy in % (Alternaria solani): 100%
efficacy in % (Botrytis cinerea): 100%
efficacy in % (Fusarium graminearum [1]): 100%
efficacy in % [2]: 100%
efficacy in % (Leptosphaeria nodorum): 95%
efficacy in % (Phytophthora infestans): 70%
efficacy in % (Puccinia triticina): 100%
efficacy in % (Pyrenophora teres): 95%
efficacy in % (Septoria tritici): 90%
efficacy in % (Sphaerotheca fuliginea): 94%
efficacy in % (Uromyces appendiculatus): 81% and 75%
efficacy in % (Venturia inaequalis): 94%

C[C@H](O)C(=O)Nc1cc(-c2c(-c3ccccc3)nn3c2CCCC3)ccn1 [Example 25]
efficacy in % (Alternaria solani): 100%
efficacy in % (Botrytis cinerea): 90%
efficacy in % [2]: 100%
efficacy in % (Leptosphaeria nodorum): 95%
efficacy in % (Phytophthora infestans): 80%
efficacy in % (Puccinia triticina): 88%
efficacy in % (Pyrenophora teres): 100%
efficacy in % (Septoria tritici): 86%
efficacy in % (Sphaerotheca fuliginea): 94%
efficacy in % (Uromyces appendiculatus): 94%
efficacy in % (Venturia inaequalis): 94%
% inhibition of DON/AcDON at 50 μM (DON/AcDON production): 99%
% inhibition of the fungal growth of Fusarium graminearum at 50 μM (Fusarium graminearum [3]): 92%

CC(C)(O)C(=O)Nc1cc(-c2c(-c3ccccc3)nn3c2CCCC3)ccn1 [Example 50]
efficacy in % (Alternaria solani): 95%
efficacy in % (Fusarium graminearum [1]): 83%
efficacy in % [2]: 83%
efficacy in % (Puccinia triticina): 86%
efficacy in % (Pyrenophora teres): 95%
efficacy in % (Septoria tritici): 90%
efficacy in % (Sphaerotheca fuliginea): 94%
efficacy in % (Venturia inaequalis): 88%
% inhibition of DON/AcDON at 50 μM (DON/AcDON production): 92%
% inhibition of the fungal growth of Fusarium graminearum at 50 μM (Fusarium graminearum [3]): 57%

O=CNc1cc(-c2c(-c3ccc(F)cc3)nn3c2CCCC3)ccn1 [Example 36]
efficacy in % (Fusarium graminearum [1]): 93%
efficacy in % [2]: 88%
efficacy in % (Leptosphaeria nodorum): 90%
efficacy in % (Phytophthora infestans): 80%
efficacy in % (Puccinia triticina): 78%
efficacy in % (Pyrenophora teres): 89%
efficacy in % (Septoria tritici): 100%
efficacy in % (Sphaerotheca fuliginea): 94%
efficacy in % (Uromyces appendiculatus): 85%
% inhibition of DON/AcDON at 50 μM (DON/AcDON production): 99%
% inhibition of the fungal growth of Fusarium graminearum at 50 μM (Fusarium graminearum [3]): 94%

CC(C)(O)C(=O)Nc1cc(-c2c(-c3ccc(F)cc3)nn3c2CCCC3)ccn1 [Example 55]
efficacy in % (Alternaria solani): 80%
efficacy in % (Fusarium graminearum [1]): 83%
efficacy in % [2]: 100%
efficacy in % (Leptosphaeria nodorum): 90%
efficacy in % (Puccinia triticina): 100%
efficacy in % (Pyrenophora teres): 95%
efficacy in % (Septoria tritici): 90%
efficacy in % (Sphaerotheca fuliginea): 95%

COC(=O)Nc1cc(-c2c(-c3ccccc3)nn3c2CCCC3)ccn1 [Example 27]
efficacy in % (Alternaria solani): 100%
efficacy in % (Botrytis cinerea): 92%
efficacy in % (Fusarium graminearum [1]): 94%
efficacy in % [2]: 86%
efficacy in % (Phytophthora infestans): 80%
efficacy in % (Puccinia triticina): 75%
efficacy in % (Pyrenophora teres): 90%
efficacy in % (Uromyces appendiculatus): 94%
efficacy in % (Venturia inaequalis): 89%
% inhibition of DON/AcDON at 50 μM (DON/AcDON production): 99%
% inhibition of the fungal growth of Fusarium graminearum at 50 μM (Fusarium graminearum [3]): 56%

CC1CCc2c(-c3ccncc3F)c(-c3ccc(F)cc3)nn21 (stereo not shown) [Example 117]
efficacy in % (Alternaria solani): 94%
efficacy in % (Botrytis cinerea): 100%
efficacy in % (Fusarium graminearum [1]): 100%
efficacy in % [2]: 100%
efficacy in % (Leptosphaeria nodorum): 86%
efficacy in % (Puccinia triticina): 100%
efficacy in % (Pyrenophora teres): 100%
efficacy in % (Septoria tritici): 100%
efficacy in % (Sphaerotheca fuliginea): 95%
efficacy in % (Uromyces appendiculatus): 90%
efficacy in % (Venturia inaequalis): 100%

O=C(Nc1cc(-c2c(-c3ccc(F)cc3)nn3c2CCCC3)ccn1)c1ccsc1 [Example 47]
efficacy in % (Alternaria solani): 90%
efficacy in % [2]: 80%
efficacy in % (Phytophthora infestans): 80%
efficacy in % (Pyrenophora teres): 90%
efficacy in % (Septoria tritici): 100%
efficacy in % (Sphaerotheca fuliginea): 96%
% inhibition of DON/AcDON at 50 μM (DON/AcDON production): 100%
% inhibition of the fungal growth of Fusarium graminearum at 50 μM (Fusarium graminearum [3]): 76%

CCC(=O)Nc1cc(-c2c(-c3ccc(F)cc3)nn3c2CCC3C)ccn1 (stereo not shown) [Example 76]
efficacy in % (Alternaria solani): 100%
efficacy in % (Botrytis cinerea): 100%
efficacy in % (Fusarium graminearum [1]): 90%
efficacy in % [2]: 100%
efficacy in % (Leptosphaeria nodorum): 89%
efficacy in % (Puccinia triticina): 88%
efficacy in % (Septoria tritici): 100%
efficacy in % (Sphaerotheca fuliginea): 100%
efficacy in % (Uromyces appendiculatus): 95%
efficacy in % (Venturia inaequalis): 100%

CCC(=O)Nc1cc(-c2c(-c3ccsc3)nn3c2CCCC3)ccn1 [Example 59]
efficacy in % (Alternaria solani): 70%
efficacy in % (Botrytis cinerea): 100%
efficacy in % (Fusarium graminearum [1]): 94%
efficacy in % [2]: 100%
efficacy in % (Leptosphaeria nodorum): 89%
efficacy in % (Puccinia triticina): 100%
efficacy in % (Pyrenophora teres): 90%
efficacy in % (Sphaerotheca fuliginea): 98%
efficacy in % (Venturia inaequalis): 97%
% inhibition of DON/AcDON at 50 μM (DON/AcDON production): 100%
% inhibition of the fungal growth of Fusarium graminearum at 50 μM (Fusarium graminearum [3]): 100%

Fc1ccc(-c2nn3c(c2-c2ccncc2)CCCCC3)cc1 [Example 43]
efficacy in % (Alternaria solani): 94%
efficacy in % (Botrytis cinerea): 99%
efficacy in % [2]: 80%
efficacy in % (Leptosphaeria nodorum): 90%
efficacy in % (Phytophthora infestans): 70%
efficacy in % (Puccinia triticina): 100%
efficacy in % (Pyrenophora teres): 95%
efficacy in % (Septoria tritici): 100%
efficacy in % (Uromyces appendiculatus): 90%
efficacy in % (Venturia inaequalis): 98%
% inhibition of DON/AcDON at 50 μM (DON/AcDON production): 98%
% inhibition of the fungal growth of Fusarium graminearum at 50 μM (Fusarium graminearum [3]): 100%

CC(=O)Nc1cc(-c2c(-c3ccsc3)nn3c2CCCC3)ccn1 [Example 58]
efficacy in % (Alternaria solani): 80%
efficacy in % (Botrytis cinerea): 100%
efficacy in % (Fusarium graminearum [1]): 100%
efficacy in % [2]: 100%
efficacy in % (Leptosphaeria nodorum): 94%
efficacy in % (Phytophthora infestans): 70%
efficacy in % (Puccinia triticina): 100%
efficacy in % (Pyrenophora teres): 90%
efficacy in % (Septoria tritici): 89%
efficacy in % (Sphaerotheca fuliginea): 96%
efficacy in % (Venturia inaequalis): 99%
% inhibition of DON/AcDON at 50 μM (DON/AcDON production): 100%
% inhibition of the fungal growth of Fusarium graminearum at 50 μM (Fusarium graminearum [3]): 100%
